Read-outs that look alike come from different tables or passages of the source.
Experiments:
Format in all cases: cell-based
[1] = system: Aβ-38; assay: Aβ-38 MSD 3-plex ELISA, conditioned media of 2B7 cells; settings: Homo sapiens, 5 hours treatment
Protocol: (§1) Assays were conducted to determine the ability of a Compound of Formula I to modulate […], and Aβ-38.
(§2) Plates with capture antibodies were blocked for 1-2 hours at room temperature with 150 μL of the manufactures blocking reagent.
(§3) Cultured 2B7 cells in 96 well plate with 250 μL of media per well until confluent;
(§4) Prepared serial dilutions of compounds in DMSO at 100× the final desired concentration;
(§5) Washed wells with 2B7 cells 1× with 250 μL of media;
(§6) Diluted DMSO stocks 1:100 into media: • Added 250 μL of media containing compounds (1% DMSO) to wells with 2B7 cells for 5 hours at 37° C.
(§7) ELISA Sample Prep: • Diluted conditioned media: 1 part media with 1% DMSO and 1 part blocking buffer; • 150 μL of the 250 μL of conditioned media were used.
(§8) Prepared per manufacturer's protocol (see above). • Seven point standard curve samples were prepared that contained Aβ-42, Aβ-40, and Aβ-38. The highest concentration of Aβ-42 and Aβ-38 was 3,000 pg/mL and the highest concentration of Aβ-40 was 10,000 pg/mL. Subsequent serial dilutions were 1:3 and the final composition of each sample was 1 part blocking buffer and 1 part cell medium containing 1% DMSO.
(§9) Overnight Sample Incubation: • Blocked plates are washed 5× with MSD wash buffer with a plate washer; • […] and blocker G reagent in MSD blocking solution was added; • 25 μL of samples (1 part conditioned media containing 1% DMSO and 1 part MSD blocking buffer) were then added; • Plates were incubated overnight at 4 degrees C. or 2 hours at room temperature.
(§10) Final Wash and Readout: • Washed wells 5× with MSD wash buffer; • Added 150 μL 2×MSD read buffer; • Read with MSD imager.
(§11) Aβ peptide levels for each peptide were calculated from the standard curve using the MSD software provided with the MSD 2400 Imager. Percent vehicle values for each compound dosage were then calculated and fit to a 4 parameter curve generating IC50 values.
(§12) Conditioned media from 2B7 cells (Mayo) was collected after 5 hours of treatment and diluted with 1 volume of Meso Scale Discovery (MSD, Gaithersburg Md.) blocking buffer (1% BSA in MSD wash buffer). For total Aβ measurements, standard-bind, multi-array single spot 96 well MSD ELISA plates were coated with unlabeled 4G8 capture antibody (Covance, Princeton, N.J.) overnight at 4° C. and then blocked with 5% BSA in MSD wash buffer for 1 hour at room temperature with orbital shaking Diluted 2B7 conditioned media were added to the blocked in-house total Aβ MSD plates with SULFO-TAG 6E10 antibody (MSD). For Aβ38, 40 and 42 measurements, diluted 2B7 conditioned media were added to blocked human (6E10) Aβ 3-Plex plates (MSD). Total Aβ and Aβ 3-Plex plates were incubated for 2 hours at room temperature with orbital shaking followed by washing and reading according to the manufacturer's instructions (SECTOR® Imager 2400, MSD). Aβ concentrations were converted to percent vehicle values and used to construct dose response curves which were fitted to […] using GraphPad Prism version 5.00 for Windows, GraphPad Software, San Diego Calif. USA.

[2] = system: Notch processing (NICD); assay: Notch assay: NICD appearance in SUP-T1 cells (western blot); settings: 18 hours; for Notch % inhib: Notch inhib conc class D (1001-5000 nM); for inhibition at 5 µM: Notch inhib conc class E (>5000 nM)
Protocol: The methods for this assay are broken up into two parts. 1) Growing, dosing and lysing cells 2) Measuring Notch processing (NICD appearance) and data manipulation. Cell viability is also described (CTG). SUP-T1 cells were cultured in T75 flasks in RPMI media (Mediatech 10-041-CV) supplemented with 10% FBS and penicillin/streptomycin at 37° C. in a 5% CO2 atmosphere. One hour prior to drug treatment six well plates were seeded with 1.5 mL of media with cells at a density of 1.0×10^6 cells/mL. The DMSO serial dilutions were diluted 100 fold directly into the media with the cells and incubated for 18 hours at 37° C. After treatment 100 μL of treated cells were assayed for viability with the Promega Cell Titer Glo assay system. […] Lysates were spun at 5,000 RPM for 5 minutes and supernatants were collected and analyzed for NICD levels. […] To account for loading discrepancies each NICD band was normalized to the alpha tubulin band in that well. These values were then normalized to vehicle levels and used to plot a dose response curve. IC50 values were obtained from the dose response curves using a four parameter fit method available within Prism's GraphPad graphing suite. Luminescent data from Promega's Cell Titre Glo assay system were normalized to vehicle controls and plotted with NICD levels.

[3] = system: Aβ-42; assay: Aβ-42 MSD 3-plex ELISA, conditioned media of 2B7 cells; settings: Homo sapiens, 5 hours treatment
Protocol: as §1, §2, §3, §4, §5, §6, §7, §8, §9, §10, §11, §12

[4] = system: Aβ-40; assay: Aβ-40 MSD 3-plex ELISA, conditioned media of 2B7 cells; settings: Homo sapiens, 5 hours treatment
Protocol: as §1, §2, §3, §4, §5, §6, §7, §8, §9, §10, §11, §12

[5] = inflection of dose response curve, read-out: Aβ 38 DR IC50 Inflection
[6] = inflection of dose response curve, read-out: Aβ 42 DR IC50 Inflection
[7] = inflection of dose response curve, read-out: Aβ 40 DR IC50 Inflection

SMILES | IC50 [1, 5] [nM] | IC50 ([1]; read-out: Aβ 38 IC50) [nM] | Notch % inhib [2] | IC50 [3, 6] [nM] | IC50 ([3]; read-out: Aβ 42 IC50) [nM] | IC50 [4, 7] [nM] | IC50 ([4]; read-out: Aβ 40 IC50) [nM] | inhibition at 5 µM ([2]; Homo sapiens) [%] | IC50 ([2]; Homo sapiens, NICD levels) [nM]
CCO[C@@H]([C@H]1C[C@@H](C)[C@H]2[C@H](O1)[C@H](O)[C@@]1(C)[C@@H]3CC[C@H]4C(C)(C)[C@@H](O[C@H]5CN(C6CNC6)CCO5)CC[C@@]45C[C@@]35CC[C@]21C)C(C)(C)O [Compound I-2] | 100 to 500 | 100 to 500 | A (A is range from 0-25%) | < 100 | 100 to 500 | > 5000 | 1000 to 5000 |  | 
CCO[C@@H]([C@H]1C[C@@H](C)[C@H]2[C@H](O1)[C@H](O)[C@@]1(C)[C@@H]3CC[C@H]4C(C)(C)[C@@H](O[C@H]5CN(C6CN(C)C6)CCO5)CC[C@@]45C[C@@]35CC[C@]21C)C(C)(C)O [Compound I-3] |  |  |  |  |  |  |  | 26 to 50 | 
CCO[C@@H]([C@H]1C[C@@H](C)[C@H]2[C@H](O1)[C@H](O)[C@@]1(C)[C@@H]3CC[C@H]4C(C)(C)[C@@H](O[C@H]5CN(C6CN(CC(=O)N(C)C)C6)CCO5)CC[C@@]45C[C@@]35CC[C@]21C)C(C)(C)O [Compound I-7] |  | 100 to 500 | A (A is range from 0-25%) | 100 to 500 | 100 to 500 |  | 1000 to 5000 |  | 
CCO[C@@H]([C@H]1C[C@@H](C)[C@H]2[C@H](O1)[C@H](O)[C@@]1(C)[C@@H]3CC[C@H]4C(C)(C)[C@@H](O[C@H]5CN(C6CN(CC(=O)N7CCC7)C6)CCO5)CC[C@@]45C[C@@]35CC[C@]21C)C(C)(C)O [Compound I-8] |  | 1000 to 5000 | A (A is range from 0-25%) | 100 to 500 | 100 to 500 |  | 1000 to 5000 |  | 
CCO[C@@H]([C@H]1C[C@@H](C)[C@H]2[C@H](O1)[C@H](O)[C@@]1(C)[C@@H]3CC[C@H]4C(C)(C)[C@@H](O[C@H]5CN(C6CCN(C7COC7)CC6)CCO5)CC[C@@]45C[C@@]35CC[C@]21C)C(C)(C)O [Compound I-35] |  | 501 to 1000 |  | 100 to 500 | 100 to 500 | 1000 to 5000 | 1000 to 5000 |  | > 5000
CCO[C@@H]([C@H]1C[C@@H](C)[C@H]2[C@H](O1)[C@H](O)[C@@]1(C)[C@@H]3CC[C@H]4C(C)(C)[C@@H](O[C@H]5CN(CCN6CCC6)CCO5)CC[C@@]45C[C@@]35CC[C@]21C)C(C)(C)O [Compound I-57] |  | 100 to 500 |  | < 100 | 100 to 500 | 1000 to 5000 | 1000 to 5000 | 0 to 25 | 
CCO[C@@H]([C@H]1C[C@@H](C)[C@H]2[C@H](O1)[C@H](O)[C@@]1(C)[C@@H]3CC[C@H]4C(C)(C)[C@@H](O[C@H]5CN(CCN6CCOCC6)CCO5)CC[C@@]45C[C@@]35CC[C@]21C)C(C)(C)O [Compound I-58] |  | 501 to 1000 |  | 100 to 500 | 100 to 500 |  | > 5000 | 26 to 50 | 
CCO[C@@H]([C@H]1C[C@@H](C)[C@H]2[C@H](O1)[C@H](O)[C@@]1(C)[C@@H]3CC[C@H]4C(C)(C)[C@@H](O[C@H]5CN(CCNCCOC)CCO5)CC[C@@]45C[C@@]35CC[C@]21C)C(C)(C)O [Compound I-60] | 100 to 500 | 100 to 500 | A (A is range from 0-25%) | 100 to 500 | 100 to 500 | 1000 to 5000 | 1000 to 5000 |  | 
CCO[C@@H]([C@H]1C[C@@H](C)[C@H]2[C@H](O1)[C@H](O)[C@@]1(C)[C@@H]3CC[C@H]4C(C)(C)[C@@H](O[C@H]5CN(CCN(C)CCOC)CCO5)CC[C@@]45C[C@@]35CC[C@]21C)C(C)(C)O [Compound I-61] |  | 501 to 1000 | A (A is range from 0-25%) | 100 to 500 | 100 to 500 | 1000 to 5000 | 1000 to 5000 |  | 
CCO[C@@H]([C@H]1C[C@@H](C)[C@H]2[C@H](O1)[C@H](O)[C@@]1(C)[C@@H]3CC[C@H]4C(C)(C)[C@@H](O[C@H]5CN([C@@H](C)CN6CCC6)CCO5)CC[C@@]45C[C@@]35CC[C@]21C)C(C)(C)O [Compound I-76] |  |  | B (B is a range from 26-50%) | 1000 to 5000 |  |  |  |  | 
CCO[C@@H]([C@H]1C[C@@H](C)[C@H]2[C@H](O1)[C@H](O)[C@@]1(C)[C@@H]3CC[C@H]4C(C)(C)[C@@H](O[C@H]5CN([C@H](C)CN6CCC6)CCO5)CC[C@@]45C[C@@]35CC[C@]21C)C(C)(C)O [Compound I-77] |  |  | A (A is range from 0-25%) |  |  |  |  |  | 
